From PMC6382819, “Design strategy for serine hydroxymethyltransferase probes based on retro-aldol-type reaction” (Nature Communications, 2019)
Values belong to the compound of their own block, whether it stands above or below them.

What was measured:
hSHMT1 [1] = molecular target: T1, hSHMT1 (Homo sapiens, UniProt P34896); assay: ITC; also DSF thermal shift and HPLC Ser-Gly conversion inhibition (IC50 […]); type: binding
T1 construct: gene SHMT1
T1 sequence (P34896 2-483): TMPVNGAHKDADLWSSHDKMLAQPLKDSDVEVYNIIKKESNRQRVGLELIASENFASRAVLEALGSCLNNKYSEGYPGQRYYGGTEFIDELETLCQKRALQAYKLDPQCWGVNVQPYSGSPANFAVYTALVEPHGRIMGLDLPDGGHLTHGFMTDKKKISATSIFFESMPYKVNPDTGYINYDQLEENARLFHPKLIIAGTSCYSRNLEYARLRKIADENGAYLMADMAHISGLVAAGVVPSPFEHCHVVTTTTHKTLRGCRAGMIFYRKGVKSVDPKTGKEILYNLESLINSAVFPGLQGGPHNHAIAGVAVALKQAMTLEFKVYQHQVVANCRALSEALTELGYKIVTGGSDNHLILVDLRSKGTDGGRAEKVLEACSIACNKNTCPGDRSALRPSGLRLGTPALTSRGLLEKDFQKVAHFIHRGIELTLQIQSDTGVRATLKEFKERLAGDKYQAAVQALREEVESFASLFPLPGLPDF

hSHMT1 [2] = molecular target: T1, hSHMT1; assay: enzyme kinetics with recombinant hSHMT1 (UV absorption; […] NMR turnover); type: biochemical
hSHMT1 [3] = molecular target: T1, hSHMT1; assay: enzyme kinetics with recombinant hSHMT1 (retro-aldol turnover, fluorescence); type: biochemical

Kd (hSHMT1 [1]): 2000 nM
Compound: O=C(O)CCC(=O)Nc1ccc(-c2ccnc(-c3ccc(NC(=O)CCC(=O)O)cc3)n2)cc1 [Hit 1]

Km (hSHMT1 [2]): 2750 ± 270 µM
Compound: N[C@H](C(=O)O)[C@@H](O)c1ccc(F)cc1 [compound 2, 19F NMR probe 2]

Km (hSHMT1 [3]): 1810 ± 190 µM
Compound: CN(C)c1ccc2cc([C@H](O)[C@H](N)C(=O)O)ccc2c1 [compound 1, fluorescent probe 1]
